Measured values from ChEMBL document CHEMBL1697723, “A predictive ligand-based Bayesian model for human drug-induced liver injury” (Drug Metab Dispos, 2010).

What follows are compounds tested on Hepatotoxicity (assay: Human drug-induced liver injury (DILI) modelling dataset from Ekins et al). Conditions: not given.

| SMILES | Hepatotoxicity |
| --- | --- |
| CCOC(=O)C(C)(C)Oc1ccc(Cl)cc1 [CLOFIBRATE] | DILI positive (test set) |
| O=c1[nH]c(=O)n([C@@H]2O[C@H](CO)[C@@H](O)[C@@H]2F)cc1I [FIALURIDINE] | DILI positive (test set) |
| C=C(C)[C@H]1CC=C(C)CC1 [D-LIMONENE] | DILI positive (test set) |
| CO/N=C(/C(=O)N[C@@H]1C(=O)N2C(C(=O)[O-])=C(CSc3nc(=O)c(O)nn3C)CS[C@H]12)c1csc(N)n1.[Na+] | DILI positive (test set) |
| O=C(O)/C=C\C(=O)O [MALEIC ACID] | DILI positive (training set) |
| COCC(=O)O [METHOXYACETIC ACID] | DILI positive (test set) |
| COc1cccc2c1C(=O)c1c(O)c3c(c(O)c1C2=O)C[C@@](O)(C(=O)CO)C[C@@H]3O[C@H]1C[C@H](N)[C@H](O)[C@H](C)O1.Cl [DOXORUBICIN HYDROCHLORIDE] | DILI positive (test set) |
| CCC1(c2ccccc2)CCC(=O)NC1=O (stereo not drawn) [GLUTETHIMIDE] | DILI positive (test set) |
| COc1cc(CNC(=O)CCCC/C=C/C(C)C)ccc1O [CAPSAICIN] | DILI negative (test set) |
| CCCC[C@@H](CC)COC(=O)c1ccccc1C(=O)OC[C@@H](CC)CCCC [BIS(2-ETHYLHEXYL)PHTHALATE] | DILI positive (test set) |
| CC(=O)N(O)CCCCCNC(=O)CCC(=O)N(O)CCCCCNC(=O)CCC(=O)N(O)CCCCCN.CS(=O)(=O)O [DEFEROXAMINE MESYLATE] | DILI positive (training set) |
| NC1=NC(=O)C(c2ccccc2)O1 (stereo not drawn) [PEMOLINE] | DILI positive (test set) |
| C[C@@H]1C[C@H]2[C@@H]3CCC4=CC(=O)C=C[C@]4(C)[C@@]3(Cl)[C@@H](O)C[C@]2(C)[C@@]1(OC(=O)c1ccco1)C(=O)CCl [MOMETASONE FUROATE] | DILI negative (test set) |
| CC(=O)OCC1=C(C(=O)[O-])N2C(=O)[C@@H](NC(=O)Cc3cccs3)[C@H]2SC1.[Na+] [CEPHALOTHIN SODIUM] | DILI positive (test set) |
| Cc1c(C)c2c(c(C)c1O)CCC(C)(COc1ccc(CC3SC(=O)NC3=O)cc1)O2 (stereo not drawn) [TROGLITAZONE] | DILI positive (test set) |
| C[C@H](C(=O)O)c1ccc2oc(-c3ccc(F)cc3)nc2c1 [FLUNOXAPROFEN] | DILI negative (test set) |
| C[N+](C)(C)CC(=O)O.[Cl-] [BETAINE HYDROCHLORIDE] | DILI negative (test set) |
| Oc1ccccc1Br | DILI positive (test set) |
| CC(C)N(CCC(C(N)=O)(c1ccccc1)c1ccccn1)C(C)C.O=P(O)(O)O (stereo not drawn) [DISOPYRAMIDE PHOSPHATE] | DILI positive (training set) |
| O=C1NCN(c2ccccc2)C12CCN(CCCC(c1ccc(F)cc1)c1ccc(F)cc1)CC2 | DILI positive (test set) |
| Cc1onc(-c2c(Cl)cccc2Cl)c1C(=O)N[C@@H]1C(=O)N2[C@@H]1SC(C)(C)[C@@H]2C(=O)[O-].O.[Na+] [DICLOXACILLIN SODIUM] | DILI positive (test set) |
| Cc1oncc1C(=O)Nc1ccc(C(F)(F)F)cc1 [LEFLUNOMIDE] | DILI positive (training set) |
| Cc1cn([C@H]2C=C[C@@H](CO)O2)c(=O)[nH]c1=O [STAVUDINE] | DILI positive (training set) |
| CN1CCN(CCCN2c3ccccc3Sc3ccc(C(F)(F)F)cc32)CC1 [TRIFLUOPERAZINE] | DILI positive (training set) |

Same assay, conditions: Liver

| SMILES | Hepatotoxicity |
| --- | --- |
| Cl.Clc1cccc(Cl)c1NC1=NCCN1 [CLONIDINE HYDROCHLORIDE] | DILI positive (training set) |
| Cl[C@H]1[C@H](Cl)[C@@H](Cl)[C@H](Cl)[C@@H](Cl)[C@@H]1Cl [BETA-HEXACHLOROCYCLOHEXANE] | DILI positive (training set) |
| Nc1ncn([C@@H]2O[C@H](CO)[C@@H](O)[C@H]2O)c(=O)n1 [AZACITIDINE] | DILI positive (test set) |
| Cc1c(F)c(N2CCNC(C)C2)cc2c1c(=O)c(C(=O)O)cn2C1CC1 (stereo not drawn) [GREPAFLOXACIN] | DILI positive (test set) |
